Molecular target: His-tagged N-terminal ATP binding domain (amino acid residues 9-236) of HSP90α (Homo sapiens, UniProt P07900)
Test: HSP90 inhibitor binding potency: TRF competition binding assay
Details: Table II; read-out: Hsp90 IC50 Range
Method in brief: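 His-tagged HSP90α N-domain (residues 9-236) incubated 2 h at room temperature with biotinylated radicicol and increasing compound in 50 mM HEPES, 6 mM MgCl2, 20 mM KCl, 0.1% BSA. Bound tracer captured on streptavidin plates, detected with europium anti-His antibody by time-resolved fluorescence; IC50 derived.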

Row | IC50 [nM] | SMILES
1 | 1000 to 10000 | COc1ccc(F)c(-c2scnc2C2CC(=O)c3c(C)nc(N)nc3C2)c1 (centres unmarked) [Compound 289, 2-amino-7-[5-(2-fluoro-5-methoxy-phenyl)-thiazol-4-yl]-4-methyl-7,8-dihydro-6H-quinazolin-5-one]
2 | 1000 to 10000 | COc1ccccc1Oc1cc(F)ccc1C1CC(=O)c2c(C)nc(N)nc2C1 (centres unmarked) [Compound 290, 2-amino-7-[4-fluoro-2-(2-methoxy-phenoxy)-phenyl]-4-methyl-7,8-dihydro-6H-quinazolin-5-one]
3 | < 1000 | COc1cccc(-c2scnc2C2CC(=O)c3c(C)nc(N)nc3C2)n1 (centres unmarked) [Compound 291, 2-amino-7-[5-(6-methoxy-pyridin-2-yl)-thiazol-4-yl]-4-methyl-7,8-dihydro-6H-quinazolin-5-one]
4 | < 1000 | Cc1nc(N)nc2c1C(=O)CC(c1ncsc1-c1cc(F)ccc1F)C2 (centres unmarked) [Compound 292, 2-amino-7-[5-(2,5-difluoro-phenyl)-thiazol-4-yl]-4-methyl-7,8-dihydro-6H-quinazolin-5-one]
5 | < 1000 | Cc1ccc(F)c(-c2scnc2C2CC(=O)c3c(C)nc(N)nc3C2)c1 (centres unmarked) [Compound 293, 2-amino-7-[5-(2-fluoro-5-methyl-phenyl)-thiazol-4-yl]-4-methyl-7,8-dihydro-6H-quinazolin-5-one]
6 | < 1000 | Cc1nc(N)nc2c1C(=O)CC(c1ncsc1-c1cccc(F)n1)C2 (centres unmarked) [Compound 294, 2-amino-7-[5-(6-fluoro-pyridin-2-yl)-thiazol-4-yl]-4-methyl-7,8-dihydro-6H-quinazolin-5-one]
7 | 1000 to 10000 | CNc1cccc(-c2cc(F)ccc2C2CC(=O)c3c(C)nc(N)nc3C2)n1 (centres unmarked) [Compound 295, 2-amino-7-[4-fluoro-2-(6-methylamino-pyridin-2-yl)-phenyl]-4-methyl-7,8-dihydro-6H-quinazolin-5-one]
8 | < 1000 | CNc1cncc(-c2cc(F)ccc2C2CC(=O)c3c(C)nc(N)nc3C2)n1 (centres unmarked) [Compound 296, 2-amino-7-[4-fluoro-2-(6-methylamino-pyrazin-2-yl)-phenyl]-4-methyl-7,8-dihydro-6H-quinazolin-5-one]
9 | 1000 to 10000 | COc1cccc(-c2scnc2[C@H]2CC(=O)c3c(C)nc(N)nc3C2)n1 [Compound 297, (R)-2-amino-7-[5-(6-methoxy-pyridin-2-yl)-thiazol-4-yl]-4-methyl-7,8-dihydro-6H-quinazolin-5-one]
10 | < 1000 | COc1cccc(-c2scnc2[C@@H]2CC(=O)c3c(C)nc(N)nc3C2)n1 [Compound 298, (S)-2-amino-7-[5-(6-methoxy-pyridin-2-yl)-thiazol-4-yl]-4-methyl-7,8-dihydro-6H-quinazolin-5-one]
11 | < 1000 | COc1nc(-c2cc(F)ccc2[C@H]2CC(=O)c3c(C)nc(N)nc3C2)ncc1Cl [Compound 299, (R)-2-amino-7-[2-(5-chloro-4-methoxy-pyrimidin-2-yl)-4-fluoro-phenyl]-4-methyl-7,8-dihydro-6H-quinazolin-5-one]
12 | < 1000 | COc1nc(-c2cc(F)ccc2[C@@H]2CC(=O)c3c(C)nc(N)nc3C2)ncc1Cl [Compound 300, (S)-2-amino-7-[2-(5-chloro-4-methoxy-pyrimidin-2-yl)-4-fluoro-phenyl]-4-methyl-7,8-dihydro-6H-quinazolin-5-one]
13 | < 1000 | COc1ccccc1-c1scnc1C1CC(=O)c2c(C)nc(N)nc2C1 (centres unmarked) [Compound 301, 2-amino-7-[5-(2-methoxy-phenyl)-thiazol-4-yl]-4-methyl-7,8-dihydro-6H-quinazolin-5-one]
14 | < 1000 | Cc1nc(N)nc2c1C(=O)CC(c1ncsc1-c1ccccc1F)C2 (centres unmarked) [Compound 302, 2-amino-7-[5-(2-fluoro-phenyl)-thiazol-4-yl]-4-methyl-7,8-dihydro-6H-quinazolin-5-one]
15 | < 1000 | COc1cncc(-c2scnc2C2CC(=O)c3c(C)nc(N)nc3C2)n1 (centres unmarked) [Compound 303, 2-amino-7-[5-(6-methoxy-pyrazin-2-yl)-thiazol-4-yl]-4-methyl-7,8-dihydro-6H-quinazolin-5-one]
16 | 1000 to 10000 | COc1ccc(Cc2nc(N)nc3c2C(=O)CC(c2ccccc2)C3)cc1 (centres unmarked) [Compound 304, 2-amino-4-(4-methoxy-benzyl)-7-phenyl-7,8-dihydro-6H-quinazolin-5-one]
17 | > 10000 | Nc1nc(CCc2ccccc2)c2c(n1)CC(c1ccccc1)CC2=O (centres unmarked) [Compound 305, 2-amino-4-phenethyl-7-phenyl-7,8-dihydro-6H-quinazolin-5-one]
18 | 1000 to 10000 | COc1cccc(Cc2nc(N)nc3c2C(=O)CC(c2ccccc2)C3)c1 (centres unmarked) [Compound 306, 2-amino-4-(3-methoxy-benzyl)-7-phenyl-7,8-dihydro-6H-quinazolin-5-one]
19 | 1000 to 10000 | Nc1nc(Cc2ccc(F)cc2)c2c(n1)CC(c1ccccc1)CC2=O (centres unmarked) [Compound 307, 2-amino-4-(4-fluoro-benzyl)-7-phenyl-7,8-dihydro-6H-quinazolin-5-one]
20 | > 10000 | Nc1nc(Cc2cccc([N+](=O)[O-])c2)c2c(n1)CC(c1ccccc1)CC2=O (centres unmarked) [Compound 308, 2-amino-4-(3-nitro-benzyl)-7-phenyl-7,8-dihydro-6H-quinazolin-5-one]
21 | > 10000 | Nc1cccc(Cc2nc(N)nc3c2C(=O)CC(c2ccccc2)C3)c1 (centres unmarked) [Compound 309, 2-amino-4-(3-amino-benzyl)-7-phenyl-7,8-dihydro-6H-quinazolin-5-one]
22 | > 10000 | CC(=O)Nc1cccc(Cc2nc(N)nc3c2C(=O)CC(c2ccccc2)C3)c1 (centres unmarked) [Compound 310, N-[3-(2-amino-5-oxo-7-phenyl-5,6,7,8-tetrahydro-quinazolin-4-ylmethyl)-phenyl]-acetamide]
23 | > 10000 | Nc1nc(O)c2c(n1)CC(c1ccccc1)CC2=O (centres unmarked) [Compound 311, 2-amino-4-hydroxy-7-phenyl-7,8-dihydro-6H-quinazolin-5-one]
24 | < 1000 | COc1ccc(F)c(-c2cc(F)ccc2[C@@H]2CC(=O)c3c(C)nc(N)nc3C2)n1 [Compound 313, (S)-2-amino-7-[4-fluoro-2-(3-fluoro-6-methoxy-pyridin-2-yl)-phenyl]-4-methyl-7,8-dihydro-6H-quinazolin-5-one]
25 | 1000 to 10000 | COc1ccc(F)c(-c2cc(F)ccc2[C@H]2CC(=O)c3c(C)nc(N)nc3C2)n1 [Compound 314, (R)-2-amino-7-[4-fluoro-2-(3-fluoro-6-methoxy-pyridin-2-yl)-phenyl]-4-methyl-7,8-dihydro-6H-quinazolin-5-one]
26 | > 10000 | CCc1nc(N)nc2c1C(=O)CC(c1ccc(F)cc1Br)C2 (centres unmarked) [Compound 315, 2-amino-7-(2-bromo-4-fluoro-phenyl)-4-ethyl-7,8-dihydro-6H-quinazolin-5-one]
27 | < 1000 | CCc1nc(N)nc2c1C(=O)CC(c1ccc(F)cc1-c1cccc(OC)n1)C2 (centres unmarked) [Compound 316, 2-amino-4-ethyl-7-[4-fluoro-2-(6-methoxy-pyridin-2-yl)-phenyl]-7,8-dihydro-6H-quinazolin-5-one]
28 | 1000 to 10000 | CCc1nc(N)nc2c1C(=O)CC(c1ccc(F)cc1-c1cccnc1OC)C2 (centres unmarked) [Compound 317, 2-amino-4-ethyl-7-[4-fluoro-2-(2-methoxy-pyridin-3-yl)-phenyl]-7,8-dihydro-6H-quinazolin-5-one]
29 | < 1000 | CCc1nc(N)nc2c1C(=O)CC(c1ccc(F)cc1-c1cccnc1)C2 (centres unmarked) [Compound 318, 2-amino-4-ethyl-7-(4-fluoro-2-pyridin-3-yl-phenyl)-7,8-dihydro-6H-quinazolin-5-one]

Source: patent US20070027150A1 (priority 2005, published 2007)
